# Publication PMC10794144, “A novel antibiotic class targeting the lipopolysaccharide transporter” (Nature, 2024)
# Tested on: A. baumannii
# Assay: microbe, parasite or virus in culture
# Outline: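 Values come from CLSI-guided (M07, M100) broth microdilution in CAMHB. Endpoint: lowest concentration halting growth, judged by naked eye or by OD600 plateau.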
smiles,measurement,setting,value
CN1C(=O)[C@H](CCCCN)NC(=O)[C@H](CCCN)NCc2cccnc2Sc2c(Cl)ccc(Cl)c2CNC(=O)[C@@H]1Cc1c[nH]c2ccccc12 [RO7075573],MIC 100%,"ROB08701, Study LGC301026",64 µg/mL
same,MIC 80%,"ROB08701, Study LGC308175",0.12 µg/mL
same,MIC 100%,"ROB08701, Study LGC308175",64 µg/mL
same,MIC 80%,"ROB08701, Study ROC010",0.25 µg/mL
same,MIC 100%,"ROB08701, Study ROC010",0.5 µg/mL
same,MIC 80%,"ROB08701, Study ROC012",0.12 µg/mL
same,MIC 100%,"ROB08701, Study ROC012",8 µg/mL
same,MIC 80%,"ROB08702, Study LGC281440",0.12 µg/mL
same,MIC 100%,"ROB08702, Study LGC281440",>64 µg/mL
same,MIC 80%,"ROB08702, Study LGC282160",2 µg/mL
same,MIC 100%,"ROB08702, Study LGC282160",>64 µg/mL
same,MIC 80%,"ROB08702, Study LGC284879",0.12 µg/mL
same,MIC 100%,"ROB08702, Study LGC284879",>64 µg/mL
same,MIC 80%,"ROB08702, Study LGC285582",0.12 µg/mL
same,MIC 100%,"ROB08702, Study LGC285582",>64 µg/mL
same,MIC 80%,"ROB08702, Study LGC286210",0.12 µg/mL
same,MIC 100%,"ROB08702, Study LGC286210",>64 µg/mL
same,MIC 80%,"ROB08702, Study LGC293598",0.12 µg/mL
same,MIC 100%,"ROB08702, Study LGC293598",>64 µg/mL
same,MIC 80%,"ROB08702, Study LGC294355",0.12 µg/mL
same,MIC 100%,"ROB08702, Study LGC294355",>64 µg/mL
same,MIC 80%,"ROB08702, Study LGC295147",0.12 µg/mL
same,MIC 100%,"ROB08702, Study LGC295147",64 µg/mL
same,MIC 80%,"ROB08702, Study LGC296813",0.12 µg/mL
same,MIC 100%,"ROB08702, Study LGC296813",64 µg/mL
same,MIC 80%,"ROB08702, Study LGC299544",0.12 µg/mL
same,MIC 100%,"ROB08702, Study LGC299544",64 µg/mL
same,MIC 80%,"ROB08702, Study LGC301026",0.12 µg/mL
same,MIC 100%,"ROB08702, Study LGC301026",64 µg/mL
same,MIC 80%,"ROB08702, Study LGC308175",0.12 µg/mL
same,MIC 100%,"ROB08702, Study LGC308175",64 µg/mL
same,MIC 80%,"ROB08702, Study ROC010",0.25 µg/mL
same,MIC 100%,"ROB08702, Study ROC010",32 µg/mL
same,MIC 80%,"ROB08702, Study ROC012",0.12 µg/mL
same,MIC 100%,"ROB08702, Study ROC012",64 µg/mL
same,MIC 80%,"ROB08703, Study LGC281440",0.25 µg/mL
same,MIC 100%,"ROB08703, Study LGC281440",16 µg/mL
same,MIC 80%,"ROB08703, Study LGC282160",0.25 µg/mL
same,MIC 100%,"ROB08703, Study LGC282160",64 µg/mL
same,MIC 80%,"ROB08703, Study LGC284879",0.5 µg/mL
same,MIC 100%,"ROB08703, Study LGC284879",>64 µg/mL
same,MIC 80%,"ROB08703, Study LGC285582",0.25 µg/mL
same,MIC 100%,"ROB08703, Study LGC285582",64 µg/mL
same,MIC 80%,"ROB08703, Study LGC286210",0.25 µg/mL
same,MIC 100%,"ROB08703, Study LGC286210",64 µg/mL
same,MIC 80%,"ROB08703, Study LGC293598",0.12 µg/mL
same,MIC 100%,"ROB08703, Study LGC293598",>64 µg/mL
same,MIC 80%,"ROB08703, Study LGC294355",>64 µg/mL
same,MIC 100%,"ROB08703, Study LGC294355",>64 µg/mL
same,MIC 80%,"ROB08703, Study LGC295147",0.25 µg/mL
same,MIC 100%,"ROB08703, Study LGC295147",64 µg/mL
same,MIC 80%,"ROB08703, Study LGC296813",0.5 µg/mL
same,MIC 100%,"ROB08703, Study LGC296813",64 µg/mL
same,MIC 80%,"ROB08703, Study LGC299544",0.5 µg/mL
same,MIC 100%,"ROB08703, Study LGC299544",64 µg/mL
same,MIC 80%,"ROB08703, Study LGC301026",0.25 µg/mL
same,MIC 100%,"ROB08703, Study LGC301026",64 µg/mL
same,MIC 80%,"ROB08703, Study LGC308175",0.25 µg/mL
same,MIC 100%,"ROB08703, Study LGC308175",64 µg/mL
same,MIC 80%,"ROB08703, Study ROC010",0.5 µg/mL
same,MIC 100%,"ROB08703, Study ROC010",0.5 µg/mL
same,MIC 80%,"ROB08703, Study ROC012",0.25 µg/mL
same,MIC 100%,"ROB08703, Study ROC012",64 µg/mL
same,MIC 80%,"ROB08704, Study LGC281440",0.5 µg/mL
same,MIC 100%,"ROB08704, Study LGC281440",16 µg/mL
same,MIC 80%,"ROB08704, Study LGC282160",0.25 µg/mL
same,MIC 100%,"ROB08704, Study LGC282160",64 µg/mL
same,MIC 80%,"ROB08704, Study LGC284879",0.5 µg/mL
same,MIC 100%,"ROB08704, Study LGC284879",>64 µg/mL
same,MIC 80%,"ROB08704, Study LGC285582",0.25 µg/mL
same,MIC 100%,"ROB08704, Study LGC285582",64 µg/mL
same,MIC 80%,"ROB08704, Study LGC286210",0.5 µg/mL
same,MIC 100%,"ROB08704, Study LGC286210",32 µg/mL
same,MIC 80%,"ROB08704, Study LGC293598",0.5 µg/mL
same,MIC 100%,"ROB08704, Study LGC293598",>64 µg/mL
same,MIC 80%,"ROB08704, Study LGC294355",0.5 µg/mL
same,MIC 100%,"ROB08704, Study LGC294355",>64 µg/mL
same,MIC 80%,"ROB08704, Study LGC295147",0.5 µg/mL
same,MIC 100%,"ROB08704, Study LGC295147",64 µg/mL
same,MIC 80%,"ROB08704, Study LGC296813",0.5 µg/mL
same,MIC 100%,"ROB08704, Study LGC296813",32 µg/mL
same,MIC 80%,"ROB08704, Study LGC299544",0.5 µg/mL
same,MIC 100%,"ROB08704, Study LGC299544",64 µg/mL
same,MIC 80%,"ROB08704, Study LGC301026",0.5 µg/mL
same,MIC 100%,"ROB08704, Study LGC301026",64 µg/mL
same,MIC 80%,"ROB08704, Study LGC308175",0.25 µg/mL
same,MIC 100%,"ROB08704, Study LGC308175",32 µg/mL
